Test results: patent US20240293349A1, “USE OF AN RXR AGONIST IN TREATING DRUG RESISTANT HER2+ CANCERS” (Io Therapeutics, Inc., priority 2022, published 2024)

Key:
[1] = system: RAR/RXR; test: Activation of non-permissive RXR heterodimers
[2] = system: PPAR/RXR; test: Activation of permissive RXR heterodimers
[3] = system: RXR homodimers; test: Activation of RXR homodimers
[4] = system: FXR/RXR; test: Activation of permissive RXR heterodimers
[5] = system: MCF7 cells; test: Inhibition of breast cancer cell growth, DAPI nuclei count; format: cell-based; conditions: Her2− MCF7 cells; IRX4204 0-1000 nM, trastuzumab 0-10 μg/ml; 6 days
Text: (§1) MCF7 is an ER^+ PR^+ Her2^− cell line. SkBr3 is an ER^− PR^− Her2^+ cell line. […] After a further 6 days, the cells were fixed with 4% paraformaldehyde in phosphate buffered saline (PBS). Nuclei were then stained with DAPI and imaged with the MetaXpress® microscope (Molecular Devices, San Jose, CA). Cell nuclei were segmented and then counted by defining pixel intensity over background and object size, using the algorithm of the MetaXpress® image analysis software.
(§2) Additionally the panel of breast cancer cell lines was expanded to also include the ER^+ PR^+ Her2^+ cell line BT474 and the ER^+ PR^− Her2^+ cell line MDA-MB-361.

[6] = system: HCC1954 human breast cancer cells; test: Inhibition of growth of a Her2-targeted agent resistant Her2+ cell line, DAPI nuclei count; format: cell-based; conditions: for resistance of the cell line to the agent used individually: HCC1954, as compared to SkBr3; for growth inhibitory effect (FIGS. 4A-B, 5A-B), in words: HCC1954, 6 days, IRX4204 10, 100 or 1000 nM
Experimental: HCC1954 is Her2^+ cancer cell line derived from a ductal carcinoma of the breast.
HCC1954 human breast cancer cells were seeded at 3000 cells per well in 96-well plates and treated with neratinib [1 or 10 nM] or DMSO (0.1%) in combination with IRX4204 [10, 100, or 1000 nM]. After 6 days of treatment, cells were fixed with 4% paraformaldehyde. Nuclei were stained with DAPI, imaged using ImageXpress® Pico (Molecular Devices) and counted using CellReporterXpress® Analysis Software (FIGS. 4A-B) Each data point represents six replicates. Statistical significance was determined using the Bonferroni-Dunn method of multiple t-tests. Each day was analyzed individually, without assuming a consistent SD (*p<0.01).
The experiment was also conducted using tucatinib or lapatinib in place of neratinib.

[7] = system: LXR/RXR; test: Activation of permissive RXR heterodimers
[8] = system: BT474 cells; test: Inhibition of breast cancer cell growth, DAPI nuclei count; format: cell-based; conditions: IRX4204 1000 nM; for inhibition at 1 µM: Homo sapiens
Text: as §1, with “software. Experimental data points were performed at a minimum of quadruplicate, and results were reported as average cell count ±standard deviation (SD).” for “software.”
(§3) To assess if this improved growth inhibition effect was synergistic, the percent inhibition observed for the highest concentrations of the combined therapeutic agents was compared to the percent inhibition that would be expected for the combination based on the observed inhibition of the therapeutic agents used alone, if the agents acting independently, that is, without interaction (see Table 1). That is, PAE=(FE1+((1−FE1)×FE2))×100, where PAE is the predicted additive effect, FE1 is the observed fractional effect of a 1st treatment, and FE2 is the observed fractional effect of a 2nd treatment.
as §2
(§4) To assess if this improved growth inhibition effect was synergistic, the percent inhibition observed for the highest concentrations of the combined therapeutic agents was compared to the percent inhibition that would be expected for the combination based on the observed inhibition of the therapeutic agents used alone, if the agents acting independently, that is, without interaction (see Tables 2-4).

[9] = system: MDA-MB-361 cells; test: as above; format: cell-based; conditions: IRX4204 1000 nM; for inhibition at 1 µM: Homo sapiens
Text: as §1, with “software. Experimental data points were performed at a minimum of quadruplicate, and results were reported as average cell count ±standard deviation (SD).” for “software.”
as §3, §2, §4

[10] = system: SkBr3 cells; test: as above; format: cell-based; conditions: for inhibition at 1 µM: Homo sapiens; for inhibition at 1 µM / DAPI Nuclei Count: SkBr3 cells, IRX4204 1000 nM
Text: as §1, with “software. […]” for “software.”

[11] = system: Nurr1/RXR heterodimer; test: Activation of permissive RXR heterodimers
[12] = system: PPAR/RXR, FXR/RXR, or LXR/RXR; conditions: cited from earlier work
[13] = system: AU565; test: IC50 of Her2 kinase inhibitors on Her2-amplified cell lines; format: cell-based; conditions: Homo sapiens
[14] = system: SkBr3; test: as above; format: cell-based; conditions: Homo sapiens, SK-BR-3
[15] = system: HCC1954; test: as above; format: cell-based; conditions: Homo sapiens
[16] = BT-474, lapatinib experiment, Lapatinib 1000 nM
[17] = BT-474, neratinib experiment, Neratinib 1000 nM
[18] = lapatinib experiment, Lapatinib 1000 nM, control 2937
[19] = neratinib experiment, Neratinib 1000 nM, control 2192
[20] = MDA-MB-361 cells, lapatinib experiment, Lapatinib 1000 nM, control 6696
[21] = MDA-MB-361 cells, neratinib experiment, Neratinib 1000 nM, control 5297
[22] = SK-BR-3, lapatinib experiment, Lapatinib 1000 nM
[23] = SK-BR-3, neratinib experiment, Neratinib 1000 nM
[24] = lapatinib experiment, Lapatinib 1000 nM, control 19855
[25] = neratinib experiment, Neratinib 1000 nM, control 6696

SMILES | resistance of the cell line to the agent used individually [6] | growth inhibitory effect (FIGS. 4A-B, 5A-B), in words [6] | inhibition at 1 µM [8, 16] [%] | inhibition at 1 µM [8, 17] [%] | DAPI Nuclei Count [8, 18] | DAPI Nuclei Count [8, 19] | DAPI Nuclei Count [9, 20] | DAPI Nuclei Count [9, 21] | inhibition at 1 µM [10, 22] [%] | inhibition at 1 µM [10, 23] [%] | DAPI Nuclei Count [10, 24] | DAPI Nuclei Count [10, 25] | IC50 [13] [nM] | IC50 [14] [nM] | IC50 [15] [nM] | further results
CC(/C=C/[C@@H]1C[C@]1(C)c1ccc2c(c1)C(C)(C)CCC2(C)C)=C\C(=O)O [IRX4204, 3,7-dimethyl-6(S),7(S)-methano,7-[1,1,4,4-tetramethyl-1,2,3,4-tetrahydron-aphth-7-yl]2(E), 4(E) heptadienoic acid] | highly resistant | no growth inhibitory effect | -15.7 | 6.8 | 3399 | 2043 | 5218 | 2459 | 4.8 | 22.1 | 18906 | 5218 |  |  |  | activation of heterodimer, in words [1]: does not activate; activation of heterodimer, in words [2]: does not activate; activation of RXR homodimers, in words [3]: specifically activate; activation of heterodimer, in words [4]: does not activate; growth inhibitory effect (FIG. 1A), in words [5]: neither agent had more than marginal effect; activation of heterodimer, in words [7]: does not activate; inhibition at 1 µM ([9]; MDA-MB-361, MDA-MB-361 cells, lapatinib experiment, Lapatinib 1000 nM): 22.1%; inhibition at 1 µM ([9]; MDA-MB-361, MDA-MB-361 cells, neratinib experiment, Neratinib 1000 nM): 43.6%; growth inhibitory effect (FIG. 1B), in words ([10]; Her2+ SkBr3 cells, IRX4204 0-1000 nM, trastuzumab 0-10 μg/ml, 6 days): moderate growth inhibitory effect; inhibition at 1 µM ([10]; SK-BR-3, 144 h, 6 days, Herceptin 1000 ng, alone or combined): 29.4%; DAPI Nuclei Count ([10]; 6 days, Herceptin 1000 ng, alone or combined, control 25958): 18274; activation of heterodimer, in words [11]: specifically activates
Cc1cc2c(cc1C1(c3ccc(C(=O)O)cn3)CC1)C(C)(C)CCC2(C)C [LGD268] |  |  |  |  |  |  |  |  |  |  |  |  |  |  |  | activation of one or more of PPAR/RXR, FXR/RXR, or LXR/RXR, in words [12]: activates
CS(=O)(=O)CCNCc1ccc(-c2ccc3ncnc(Nc4ccc(OCc5cccc(F)c5)c(Cl)c4)c3c2)o1 [Lapatinib, reference compound] | resistant | some small effect | 58.8 |  | 1211 |  | 903 |  | 88.9 |  | 2211 |  | 294 | 152 | > 1400 | inhibition at 1 µM ([9]; MDA-MB-361 cells, lapatinib experiment, Lapatinib 1000 nM): 86.5%
CCOc1cc2ncc(C#N)c(Nc3ccc(OCc4ccccn4)c(Cl)c3)c2cc1NC(=O)/C=C/CN(C)C [Neratinib, reference compound] | resistant |  |  | 91.8 |  | 180 |  | 249 |  | 86.5 |  | 903 | 20 | 7 | > 100 | inhibition at 1 µM ([9]; MDA-MB-361 cells, neratinib experiment, Neratinib 1000 nM): 95.3%
Cc1cc(Nc2ncnc3ccc(NC4=NC(C)(C)CO4)cc23)ccc1Oc1ccn2ncnc2c1 [Tucatinib] | resistant | some small effect |  |  |  |  |  |  |  |  |  |  |  | 22 | > 2000 | 
